In patent US10640495B2, “Heterocycle derivatives having TrkA inhibitory activity” (Shionogi & Co., Ltd., priority 2015, dated 2020):

What follows are compounds tested against human TrkA (Homo sapiens (Human), UniProt P04629) (assay: Human TrkA inhibition assay (Test Example 2)). Details: Table 152, human TrkA inhibition; read-out: IC50_nM.
Type: biochemical
How it was run: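 Recombinant TrkA (1 nmol/L) was preincubated 15 min at room temperature with compound in HEPES/MgCl2/DTT buffer, then reacted with FL-peptide 27 (1.5 μmol/L) and ATP (500 μmol/L) for 120 min at 37 °C. After EDTA stop, substrate phosphorylation was read by microfluidic mobility shift. IC50 came from logistic regression over 3-fold dilution series.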

Chain of human TrkA (P04629 440-796): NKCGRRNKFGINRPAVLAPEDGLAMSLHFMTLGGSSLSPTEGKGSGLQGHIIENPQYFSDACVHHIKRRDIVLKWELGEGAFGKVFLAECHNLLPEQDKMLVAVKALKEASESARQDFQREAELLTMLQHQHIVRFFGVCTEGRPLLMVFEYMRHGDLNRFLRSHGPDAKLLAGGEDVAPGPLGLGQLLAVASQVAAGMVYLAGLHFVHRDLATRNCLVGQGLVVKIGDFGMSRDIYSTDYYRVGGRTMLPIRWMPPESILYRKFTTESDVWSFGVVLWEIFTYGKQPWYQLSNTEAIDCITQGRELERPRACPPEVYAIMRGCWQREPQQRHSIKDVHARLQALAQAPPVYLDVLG

Row | IC50 [nM] | Structure (SMILES)
1 | < 100 | COCCN1C[C@@H](NC(=O)Nc2c(C)c(-c3ccc(OCc4ccccc4)nc3)nn2-c2ccccc2)[C@H](c2ccc(F)c(F)c2)O1 (racemic) [Compound I-27]

Same assay, conditions: Table 153, human TrkA inhibition; read-out: IC50

Row | Structure (SMILES) | IC50 [nM]
2 | COCCN1C[C@@H](NC(=O)Nc2c(C)c(-c3cnc4c(c3)nnn4C)nn2-c2ccccc2)[C@H](c2ccccc2)O1 (racemic) [Compound I-162] | < 100
3 | COCC[C@H]1C[C@H](NC(=O)Nc2c(C)c(C3=CCN(C(=O)CO)CC3)nn2-c2ccccc2)[C@@H](c2ccc(F)c(F)c2)O1 [Compound I-58] | 100 to 1000

Next, values leading:

Row | IC50 [nM] | Structure (SMILES)
4 | < 100 | COCCN1C[C@@H](NC(=O)Nc2c(C)c(-c3cnc(N(C)C)nc3)nn2-c2ccccc2)[C@H](c2ccnc(F)c2)O1 (racemic) [Compound I-132]
5 | < 100 | COCCN1C[C@@H](NC(=O)Nc2c(C)c(-c3cnc(C)c(N=S(C)(C)=O)c3)nn2-c2ccccc2)[C@H](c2ccc(F)c(F)c2)O1 (racemic) [Compound I-176]
6 | < 100 | COCCN1C[C@@H](NC(=O)Nc2c(C)c(-c3ccc4nnc(C)n4c3)nn2-c2ccccc2)[C@H](c2ccnc(F)c2)O1 (racemic) [Compound I-158]

Same assay, conditions: Table 154, human TrkA inhibition; read-out: IC50

Row | Structure (SMILES) | IC50 [nM]
7 | COCC[C@@H]1C[C@@H](NC(=O)Nc2c(C)c(-c3cnc(N(C(=O)OC(C)(C)C)C4CC4)nc3)nn2-c2ccccc2)[C@H](c2ccnc(F)c2)O1 [Compound I-290] | < 100
8 | COCC[C@@H]1C[C@@H](NC(=O)Nc2c(C)c(-c3cc(C)c(=O)n(C)c3)nn2-c2ccccc2)[C@H](c2ccnc(F)c2)O1 [Compound I-288] | < 100
9 | COCCN1C[C@@H](NC(=O)Nc2c(C)c(-c3ccc(N=S(C)(C)=O)nc3)nn2-c2ccccc2)[C@H](c2ccc(F)c(F)c2)O1 [Compound I-186] | < 100
10 | CNC(=O)c1cc(-c2nn(-c3ccc(F)cc3)c(NC(=O)N[C@@H]3CN(CCOC)O[C@H]3c3ccc(F)c(F)c3)c2C)cnc1OC (racemic) [Compound I-183] | < 100

The next lines start with the values.

Row | IC50 [nM] | Structure (SMILES)
11 | < 100 | COCCN1C[C@@H](NC(=O)Nc2c(C)c(-c3ccc4c(c3)CS(=O)(=O)N4C)nn2-c2ccccc2)[C@H](c2ccnc(F)c2)O1 (racemic) [Compound I-262]
12 | < 100 | COCCN1C[C@@H](NC(=O)Nc2c(C)c(-c3cnc4c(c3)COC4=O)nn2-c2ccccc2)[C@H](c2ccnc(F)c2)O1 (racemic) [Compound I-259]
13 | < 100 | COCCN1C[C@@H](NC(=O)Nc2c(C)c(-c3ccnc(C(=O)NO)c3)nn2-c2ccccc2)[C@H](c2ccc(F)c(F)c2)O1 (racemic) [Compound I-195]
14 | < 100 | COCCN1C[C@@H](NC(=O)Nc2c(C)c(-c3cnc(C(N)=O)c(Cl)c3)nn2-c2ccccc2)[C@H](c2ccnc(F)c2)O1 (racemic) [Compound I-316]

Same assay, conditions: Table 155, human TrkA inhibition; read-out: IC50

Row | Structure (SMILES) | IC50 [nM]
15 | COCCN1C[C@@H](NC(=O)Nc2c(C)c(-c3cnc(N4C[C@H]5COC[C@@H](C4)N5C)nc3)nn2-c2ccccc2)[C@H](c2ccnc(F)c2)O1 (racemic) [Compound I-422] | < 100
16 | COc1ncc(-c2nn(-c3ccccc3)c(NC(=O)N[C@@H]3CN(C)O[C@H]3c3ccc(F)c(F)c3)c2C)cn1 (racemic) [Compound I-468] | < 100
17 | COCCN1C[C@@H](NC(=O)Nc2c(C)c(-c3cnn(C)c3)nn2Cc2ccccc2)[C@H](c2ccc(F)c(F)c2)O1 [Compound I-492] | > 1000
18 | COCCN1C[C@@H](NC(=O)Nc2c(C)c(-c3ccc(N4C[C@H]5COC[C@@H](C4)N5C)nc3)nn2-c2ccccc2)[C@H](c2ccnc(F)c2)O1 (racemic) [Compound I-396] | < 100

More lines, now with the values ahead:

Row | IC50 [nM] | Structure (SMILES)
19 | < 100 | COCCN1C[C@@H](NC(=O)Nc2c(C)c(-c3cnc4c(c3)N(C)CCO4)nn2-c2ccccc2)[C@H](c2ccnc(F)c2)O1 (racemic) [Compound I-340]
20 | < 100 | COCCN1C[C@@H](NC(=O)Nc2c(C)c(-c3cnc(N4CCCC4)nc3)nn2-c2ccccc2)[C@H](c2ccnc(F)c2)O1 (racemic) [Compound I-378]
21 | < 100 | COCCN1C[C@@H](NC(=O)Nc2c(C)c(-c3cnc4c(c3)NC(=O)CN4)nn2-c2ccccc2)[C@H](c2ccnc(F)c2)O1 (racemic) [Compound I-357]
22 | < 100 | COCCN1C[C@@H](NC(=O)Nc2c(C)c(-c3cnc(C)nc3)nn2-c2ccccc2)[C@H](c2cc(F)nc(F)c2)O1 [Compound I-361]
23 | < 100 | COCCN1C[C@@H](NC(=O)Nc2c(C)c(-c3cnc4c(c3)c(C(=O)OC)nn4C)nn2-c2ccccc2)[C@H](c2ccnc(F)c2)O1 (racemic) [Compound I-369]
24 | < 100 | COCCN1C[C@@H](NC(=O)Nc2c(C)c(OCc3cc(OC)ccn3)nn2-c2ccccc2)[C@H](c2ccnc(F)c2)O1 (racemic) [Compound I-501]

Same assay, conditions: Table 156, human TrkA inhibition; read-out: IC50

Row | Structure (SMILES) | IC50 [nM]
25 | CCN1C[C@@H](NC(=O)Nc2c(C)c(OCC3CCNCC3)nn2-c2ccccc2)[C@H](c2ccc(F)cc2)O1 (racemic) [Compound I-562] | < 100
26 | Cc1c(OCC2CCN(C)CC2)nn(-c2ccccc2)c1NC(=O)N[C@@H]1CN(CC(F)F)O[C@H]1c1ccc(F)c(F)c1 (racemic) [Compound I-568] | < 100
27 | CCOc1nn(-c2ccccc2)c(NC(=O)N[C@@H]2CN(CC)O[C@H]2c2ccc(F)c(F)c2)c1C (racemic) [Compound I-542] | < 100

Results, then the compound that gave them:

Row | IC50 [nM] | Structure (SMILES)
28 | < 100 | COCCN1C[C@@H](NC(=O)Nc2c(C)c(C)nn2-c2ccccc2)[C@H](c2ccnc(F)c2)O1 (racemic) [Compound I-522]
29 | < 100 | COCCN1C[C@@H](NC(=O)Nc2c(C)c(-c3ccnc(C(=O)OC)c3)nn2-c2ccccc2)[C@H](c2ccc(F)c(F)c2)O1 [Compound I-557]
30 | < 100 | COCCN1C[C@@H](NC(=O)Nc2c(C)c(-c3cnc(CN(C)C)nc3)nn2-c2ccccc2)[C@H](c2ccc(F)c(F)c2)O1 (racemic) [Compound I-528]

Same assay, conditions: Table 157, human TrkA inhibition; read-out: IC50

Row | IC50 [nM] | Structure (SMILES)
31 | < 100 | COCCN1C[C@@H](NC(=O)Nc2c(C)c(CCN(C)C)nn2-c2ccccc2)[C@H](c2ccc(F)c(F)c2)O1 [Compound I-641]
32 | 100 to 1000 | COc1ncc(-c2nn(-c3ccccc3)c(NC(=O)N[C@@H]3CN(CCCO)O[C@H]3c3ccc(F)c(F)c3)c2C)cn1 (racemic) [Compound I-678]
33 | < 100 | COCCN1C[C@@H](NC(=O)Nc2c(C)c(-c3ccnc(CCN(C)C)c3)nn2-c2ccccc2)[C@H](c2ccc(F)c(F)c2)O1 [Compound I-643]

Same assay, conditions: human TrkA 1 nmol/L, ATP 500 μmol/L, 120 min at 37° C.; read-out: IC50 values (TrkA phosphorylation inhibition)

Row | Structure (SMILES) | IC50 [nM]
34 | COc1ncc(-c2nn(-c3ccccc3)c(NC(=O)N[C@@H]3CN(CC(F)F)O[C@H]3c3ccc(F)c(F)c3)c2C)cn1 (racemic) [Compound I-526] | 22
35 | COCCN1C[C@@H](NC(=O)Nc2c(C)c(-c3ccc(N=S(C)(C)=O)nc3)nn2-c2ccccc2)[C@H](c2ccc(F)c(F)c2)O1 (racemic) [Compound I-66] | 1.6
36 | CCN1C[C@@H](NC(=O)Nc2c(C)c(OCC3CCN(C)CC3)nn2-c2ccccc2)[C@H](c2ccc(F)c(F)c2)O1 [Compound I-536] | 4
37 | COCCN1C[C@@H](NC(=O)Nc2c(C)c(-c3cnn(C)c3)nn2C2CCC2)[C@H](c2ccc(F)c(F)c2)O1 (racemic) [Compound I-146] | 330

Results, then the compound that gave them:

Row | IC50 [nM] | Structure (SMILES)
38 | 15 | COCC[C@@H]1C[C@@H](NC(=O)Nc2c(C)c(-c3cnc(C)nc3)nn2-c2ccccc2)[C@H](c2ccnc(F)c2)O1 (racemic) [Compound I-96]
39 | 4 | COCCN1C[C@@H](NC(=O)Nc2c(C)c(-c3cnc(C)nc3)nn2-c2ccccc2)[C@H](c2ccnc(F)c2)O1 (racemic) [Compound I-47]
40 | 6.8 | COCCN1C[C@@H](NC(=O)Nc2c(C)c(-c3ccc(N4CCN(C)CC4)nc3)nn2-c2ccccc2)[C@H](c2ccnc(F)c2)O1 (racemic) [Compound I-392]
